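Compound exposure: 48 hours, 5 concentrations, 96-well plates. At the GI50, growth is halved. TGI: concentration producing complete growth inhibition.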
What was measured:
Test in all cases: inhibition of tumour cell growth, NCI panel, 48 h
[1] = tested on: 786-0 renal
[2] = tested on: A498 renal
[3] = tested on: A549 NSCLC
[4] = tested on: ACHN renal
[5] = tested on: BT-549 breast
[6] = tested on: CAKI-1 renal
[7] = tested on: CCRF-CEM leukemia
[8] = tested on: COLO 205 colon
[9] = tested on: DU-145 prostate
[10] = tested on: EKVX NSCLC
[11] = tested on: HCC-2998 colon
[12] = tested on: HCT-116 colon
[13] = tested on: HCT-15 colon
[14] = tested on: HL-60(TB) leukemia
[15] = tested on: HOP-62 NSCLC
[16] = tested on: HOP-92 NSCLC
[17] = tested on: HS 578T breast
[18] = tested on: HT29 colon
[19] = tested on: IGROV1 ovarian
[20] = tested on: K-562 leukemia
[21] = tested on: KM12 colon
[22] = tested on: LOX IMVI melanoma
[23] = tested on: M14 melanoma
[24] = tested on: MALME-3M melanoma
[25] = tested on: MCF7 breast
[26] = tested on: MDA-MB-231 breast
[27] = tested on: MDA-MB-435
[28] = tested on: MOLT-4 leukemia
[29] = tested on: NCI-H226 lung

O=C1c2cccc3cccc(c23)C(=O)N1CCCCOc1ccc(-c2nc3ccc(N4CCOCC4)cc3[nH]2)cc1
GI50 [1]: 1.28 µM | TGI [1]: 2.68 µM | GI50 [2]: 3.38 µM | TGI [2]: 20.2 µM | GI50 [3]: 3.77 µM | TGI [3]: > 84.4 µM | GI50 [4]: 15.2 µM | TGI [4]: 29.2 µM | GI50 [5]: 1.49 µM | TGI [5]: 3.15 µM | GI50 [6]: 11.6 µM | TGI [6]: 27 µM | GI50 [7]: 2.91 µM | TGI [7]: > 28.2 µM | GI50 [8]: 3.78 µM | TGI [8]: 13.7 µM | GI50 [9]: 3.86 µM | TGI [9]: 15.8 µM | GI50 [10]: 17.6 µM | TGI [10]: > 57.9 µM | GI50 [11]: 5.25 µM | TGI [11]: > 47.8 µM | GI50 [12]: 1.76 µM | TGI [12]: 3.32 µM | GI50 [13]: 2.14 µM | TGI [13]: 8.01 µM | GI50 [14]: 2.29 µM | TGI [14]: 4.55 µM | GI50 [15]: 2.47 µM | TGI [15]: 5.9 µM | GI50 [16]: 2 µM | TGI [16]: 4.37 µM | GI50 [17]: 2.16 µM | TGI [17]: 14.7 µM | GI50 [18]: 2.23 µM | TGI [18]: > 35.3 µM | GI50 [19]: 11.1 µM | TGI [19]: 66.9 µM | GI50 [20]: 3.25 µM | TGI [20]: 9.47 µM | GI50 [21]: 2.88 µM | GI50 [22]: 2.11 µM | TGI [22]: 4.53 µM | GI50 [23]: 2.88 µM | TGI [23]: 7.55 µM | GI50 [24]: 0.558 µM | TGI [24]: 3.21 µM | GI50 [25]: 2.92 µM | TGI [25]: 12.8 µM | GI50 [26]: 3.27 µM | TGI [26]: 10.5 µM | GI50 [27]: 2.04 µM | TGI [27]: 4.54 µM | GI50 [28]: 2.95 µM | TGI [28]: > 100 µM | GI50 [29]: 25.6 µM

— PubChem BioAssay (NCI)
